Key:
[1] = test system: B-cells, T cells and macrophages; details: in humans; cited from earlier work
lactic acid levels = details: animals under extreme stress; cited from earlier work
CD8^+ T cells = test: Spleen lymphocyte populations by flow cytometry, CD8+ T cells; format: in vivo, MRI-lpr mice; details: flow cytometry after twelve weeks (FIG. 3)
Text: (§1) MRI-lpr mice were used to study the effects of a combination of DMG and PCE on components of the immune system and on the progression of the SLE disease. Forty MRI-lpr mice were divided into four groups of ten mice each: a control group, a PCE treated group, a DMG treated group, and a PCE-DMG treated group. The control group was given standard mouse chow and water. […] The PCE group was given a PCE-mouse chow mix and water. The PCE-DMG combination group was given a PCE-mouse chow mix and DMG water. […] The mice were given food and water ad libitum. It is estimated that the mice, with a size range of 30–50 grams, consumed about 1–3 mg/day of DMG and 2–6 mg/day of PCE. The mice were weighed weekly and 100 ul of blood was collected via orbital bleed on a weekly basis. The collected blood was centrifuged and the serum was recovered and stored at −20° C. for analysis at the end of the twelve week experiment. After twelve weeks, the mice were sacrificed and the spleens, kidneys, and livers were harvested. […] The spleens were processed and the cells recovered were quantified by flow cytometry using fluorescent anti-CD4, anti-CD8 and anti-CD19 antibodies (Pharmingen, San Diego, Calif.). Cytokine levels in the serum and anti-single stranded and double stranded DNA antibody levels in the serum were determined using an enzyme linked immunosorbent assay (ELISA).

CD19^+ B cell = test: Spleen lymphocyte populations by flow cytometry, CD19+ B cells; format: in vivo, MRI-lpr mice; details: flow cytometry after twelve weeks (FIG. 3)
Text: as §1

[2] = test system: humoral and cellular immunity; details: Graber et al., 1981; cited from earlier work
il-10 = test: Serum cytokine ELISA, il-10; format: in vivo, MRI-lpr mice; details: ELISA (FIG. 2)
Text: as §1

il-6 = test: Serum cytokine ELISA, il-6; format: in vivo, MRI-lpr mice; details: ELISA (FIG. 2)
Text: as §1

anti-ssDNA antibody = test: Serum anti-ssDNA antibody ELISA; format: in vivo, MRI-lpr mice; details: time course to 11th week; versus control (FIG. 5)
Text: as §1

SMILES: CN(C)CC(=O)O [DMG, N,N-dimethylglycine]
- B-cell antibody responses [1]: much higher antibody responses
- activity of T cells and macrophages [1]: enhanced
- lactic acid levels (lactic acid levels): decreased lactic acid levels
- oxygen utilization (lactic acid levels): increased oxygen utilization
- CD8^+ T cells (CD8^+ T cells): No effect
- CD19^+ B cell percentages (CD19^+ B cell): No effect
- effect on humoral and cellular immunity [2]: stimulation of both humoral and cellular immunity
- levels of serum il-10 (il-10): higher levels of IL-10 than in controls
- levels of serum il-6 (il-6): significantly lower levels of il-6 than control animals
- anti-ssDNA antibody levels in the serum (anti-ssDNA antibody): appeared to be leveling out

Source: patent US7229646B2, “Methods and compositions for modulating immune response and for the treatment of inflammatory disease” (Foodscience Corporation, priority 1999, dated 2007)
